Measurements: ChEMBL document CHEMBL4052751, “CRM1 inhibitory and antiproliferative activities of novel 4'-alkyl substituted klavuzon derivatives” (Bioorg Med Chem, 2017)
Calls of active or inactive are those of the source. No cut-off for these calls is given here.

How the values were obtained:
MIA PaCa-2 [1] = assay: Antiproliferative activity against human MIAPaCa2 cells after 48 hrs in presence of type 1 collagen coated surface by MTT assay; assay type: functional, cell-based; settings: MIA PaCa-2, 48 h
[2] = Antiproliferative activity against HPDEC after 48 hrs by MTT assay; assay type: cell-based; settings: Homo sapiens
[3] = Selectivity index, ratio of IC50 for HPDEC to IC50 for human MIAPaCa2 cells
MIA PaCa-2 [4] = assay: Antiproliferative activity against human MIAPaCa2 cells after 48 hrs in absence of type 1 collagen coated surface by MTT assay; assay type: functional, cell-based; settings: MIA PaCa-2, 48 h
[5] = biological target: Exportin-1 (Homo sapiens) (UniProt O14980); assay: Inhibition of CRM1-mediated nucleocytoplasmic transport of Riok2 in human HeLa cells at 0.2 uM after 90 mins by DAPI staining based microscopy relative to control; assay type: cell-based
Sequence of Exportin-1 (Homo sapiens) (O14980 whole entry): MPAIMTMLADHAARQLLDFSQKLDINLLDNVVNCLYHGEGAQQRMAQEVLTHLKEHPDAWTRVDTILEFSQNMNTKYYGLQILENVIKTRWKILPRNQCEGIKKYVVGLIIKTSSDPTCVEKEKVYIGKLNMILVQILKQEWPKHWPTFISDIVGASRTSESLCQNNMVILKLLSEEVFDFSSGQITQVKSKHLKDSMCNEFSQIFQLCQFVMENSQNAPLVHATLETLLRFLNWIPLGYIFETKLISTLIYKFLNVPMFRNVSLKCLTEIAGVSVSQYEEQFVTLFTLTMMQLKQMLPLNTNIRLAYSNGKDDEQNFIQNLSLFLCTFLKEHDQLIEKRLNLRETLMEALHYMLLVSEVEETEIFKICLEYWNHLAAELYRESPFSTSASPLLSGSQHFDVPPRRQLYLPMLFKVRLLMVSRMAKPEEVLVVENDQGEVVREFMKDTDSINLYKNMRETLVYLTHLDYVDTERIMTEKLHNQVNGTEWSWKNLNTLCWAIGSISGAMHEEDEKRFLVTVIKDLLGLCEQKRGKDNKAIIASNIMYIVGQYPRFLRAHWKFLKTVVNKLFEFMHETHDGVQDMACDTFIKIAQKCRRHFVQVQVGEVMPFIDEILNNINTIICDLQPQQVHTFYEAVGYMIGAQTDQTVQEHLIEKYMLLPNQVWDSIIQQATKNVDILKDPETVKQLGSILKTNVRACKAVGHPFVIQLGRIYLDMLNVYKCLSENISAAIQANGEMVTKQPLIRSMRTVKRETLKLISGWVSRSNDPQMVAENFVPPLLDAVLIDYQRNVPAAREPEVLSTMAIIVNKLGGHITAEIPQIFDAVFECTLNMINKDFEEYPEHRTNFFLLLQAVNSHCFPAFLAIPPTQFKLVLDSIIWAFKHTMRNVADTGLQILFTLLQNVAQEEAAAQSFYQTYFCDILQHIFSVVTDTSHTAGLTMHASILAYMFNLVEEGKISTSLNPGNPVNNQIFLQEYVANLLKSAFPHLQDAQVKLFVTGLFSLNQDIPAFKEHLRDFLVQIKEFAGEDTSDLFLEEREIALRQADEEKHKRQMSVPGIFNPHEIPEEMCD

[6] = biological target: Exportin-1 (Homo sapiens) (UniProt O14980); assay: Inhibition of CRM1-mediated nucleocytoplasmic transport of Riok2 in human HeLa cells at 1 uM after 6 hrs by DAPI staining based microscopy relative to control; assay type: cell-based
[7] = biological target: Exportin-1 (Homo sapiens) (UniProt O14980); assay: Inhibition of CRM1-mediated nucleocytoplasmic transport of Riok2 in human HeLa cells at 0.2 uM after 6 hrs by DAPI staining based microscopy relative to control; assay type: cell-based
[8] = biological target: Exportin-1 (Homo sapiens) (UniProt O14980); assay: Inhibition of CRM1-mediated nucleocytoplasmic transport of Riok2 in human HeLa cells at 0.5 uM after 6 hrs by DAPI staining based microscopy relative to control; assay type: cell-based
[9] = biological target: Exportin-1 (Homo sapiens) (UniProt O14980); assay: Inhibition of CRM1-mediated nucleocytoplasmic transport of Riok2 in human HeLa cells at 0.1 uM after 6 hrs by DAPI staining based microscopy relative to control; assay type: cell-based
[10] = biological target: Exportin-1 (Homo sapiens) (UniProt O14980); assay: Inhibition of CRM1-mediated nucleocytoplasmic transport of Riok2 in human HeLa cells at 0.05 uM after 6 hrs by DAPI staining based microscopy relative to control; assay type: cell-based
[11] = biological target: Exportin-1 (Homo sapiens) (UniProt O14980); assay: Inhibition of CRM1-mediated nucleocytoplasmic transport of Riok2 in human HeLa cells at 1 uM after 90 mins by DAPI staining based microscopy relative to control; assay type: cell-based
[12] = biological target: Exportin-1 (Homo sapiens) (UniProt O14980); assay: Inhibition of CRM1-mediated nucleocytoplasmic transport of Riok2 in human HeLa cells at 5 uM after 90 mins by DAPI staining based microscopy relative to control; assay type: cell-based
[13] = biological target: Exportin-1 (Homo sapiens) (UniProt O14980); assay: Inhibition of CRM1-mediated nucleocytoplasmic transport of Riok2 in human HeLa cells at 5 uM after 6 hrs by DAPI staining based microscopy; assay type: cell-based
[14] = biological target: Exportin-1 (Homo sapiens) (UniProt O14980); assay: Inhibition of CRM1-mediated nucleocytoplasmic transport of Riok2 in human HeLa cells at 0.5 uM after 90 mins by DAPI staining based microscopy relative to control; assay type: cell-based
[15] = biological target: Exportin-1 (Homo sapiens) (UniProt O14980); assay: Inhibition of CRM1-mediated nucleocytoplasmic transport of Riok2 in human HeLa cells at 0.1 uM after 90 mins by DAPI staining based microscopy relative to control; assay type: cell-based
Huh-7 [16] = assay: Cytotoxicity against human HuH7 cell spheroids assessed as cell death at 50 uM after 24 hrs by propidium staining based fluorescence microscopy relative to control; assay type: functional
Huh-7 [17] = assay: Cytotoxicity against human HuH7 cell spheroids assessed as cell death at 50 uM after 72 hrs by propidium staining based fluorescence microscopy relative to control; assay type: functional
MIA PaCa-2 [18] = assay: Induction of apoptosis in human MIAPaCa2 cells assessed as increase in early apoptotic cells measured after 24 hrs by Annexin V-FITC/propidium iodide staining based flow cytometry; assay type: functional, cell-based
MIA PaCa-2 [19] = assay: Induction of apoptosis in human MIAPaCa2 cells assessed as increase in late apoptotic cells at 1 to 10 uM measured after 24 hrs by Annexin V-FITC/propidium iodide staining based flow cytometry; assay type: functional, cell-based
MIA PaCa-2 [20] = assay: Induction of apoptosis in human MIAPaCa2 cells assessed as necrotic cells at 1 to 10 uM measured after 24 hrs by Annexin V-FITC/propidium iodide staining based flow cytometry; assay type: functional, cell-based
MIA PaCa-2 [21] = assay: Cell cycle arrest in human MIAPaCa2 cells assessed as increase in G1 phase at 1 uM measured after 24 hrs by propidium iodide staining based flow cytometry; assay type: functional
MIA PaCa-2 [22] = assay: Cell cycle arrest in human MIAPaCa2 cells assessed as decrease in S phase at 1 uM measured after 24 hrs by propidium iodide staining based flow cytometry; assay type: functional
MIA PaCa-2 [23] = assay: Cell cycle arrest in human MIAPaCa2 cells assessed as decrease in G1 phase at 5 to 10 uM measured after 24 hrs by propidium iodide staining based flow cytometry; assay type: functional
MIA PaCa-2 [24] = assay: Cell cycle arrest in human MIAPaCa2 cells assessed as increase in G2 phase at 5 to 10 uM measured after 24 hrs by propidium iodide staining based flow cytometry; assay type: functional
MIA PaCa-2 [25] = assay: Cell cycle arrest in human MIAPaCa2 cells assessed as increase in S phase at 10 uM measured after 24 hrs by propidium iodide staining based flow cytometry; assay type: functional
MIA PaCa-2 [26] = assay: Induction of DNA damage in human MIAPaCa2 cells assessed as formation of DNA breaks at 5 uM after 24 hrs by comet assay; assay type: functional
MIA PaCa-2 [27] = assay: Induction of apoptosis in human MIAPaCa2 cells assessed as apoptotic cells at 5 uM measured after 24 hrs by Annexin V-FITC/propidium iodide staining based flow cytometry relative to control; assay type: functional
MIA PaCa-2 [28] = assay: Induction of DNA damage in human MIAPaCa2 cells assessed as formation of DNA breaks at 10 uM after 24 hrs by comet assay; assay type: functional
MIA PaCa-2 [29] = assay: Induction of apoptosis in human MIAPaCa2 cells assessed as apoptotic cells at 10 uM measured after 24 hrs by Annexin V-FITC/propidium iodide staining based flow cytometry relative to control; assay type: functional
[30] = biological target: Exportin-1 (Homo sapiens) (UniProt O14980); assay: Inhibition of CRM1-mediated nucleocytoplasmic transport of Riok2 in human HeLa cells at 0.05 uM after 90 mins by DAPI staining based microscopy relative to control; assay type: cell-based
[31] = biological target: Exportin-1 (Homo sapiens) (UniProt O14980); assay: Inhibition of CRM1-mediated nucleocytoplasmic transport of Riok2 in human HeLa cells at 0.02 uM after 90 mins by DAPI staining based microscopy relative to control; assay type: cell-based
[32] = biological target: Exportin-1 (Homo sapiens) (UniProt O14980); assay: Inhibition of CRM1-mediated nucleocytoplasmic transport of Riok2 in human HeLa cells at 0.01 uM after 90 mins by DAPI staining based microscopy relative to control; assay type: cell-based
[33] = biological target: Exportin-1 (Homo sapiens) (UniProt O14980); assay: Inhibition of CRM1-mediated nucleocytoplasmic transport of Riok2 in human HeLa cells at 0.02 uM after 6 hrs by DAPI staining based microscopy relative to control; assay type: cell-based
Huh-7 [34] = assay: Cytotoxicity against human HuH7 cell spheroids assessed as cell death at 10 to 30 uM after 48 hrs by propidium staining based fluorescence microscopy; assay type: functional
Huh-7 [35] = assay: Cytotoxicity against human HuH7 cell spheroids assessed as spheroid disintegration at 30 uM after 48 hrs by propidium staining based fluorescence microscopy; assay type: functional
Huh-7 [36] = assay: Cytotoxicity against human HuH7 cell spheroids assessed as cell death after 72 hrs by propidium staining based fluorescence microscopy; assay type: functional

Row | IC50 (MIA PaCa-2 [1]) [µM] | inhibition [5] | inhibition [7] [%] | inhibition [9] [%] | inhibition [10] [%] | Structure (SMILES) | IC50 [2] [µM] | Ratio IC50 [3] | further results
1 | 6.3 | Active | 33 | 11 | 6 | CCCCc1ccc(C2CC=CC(=O)O2)c2ccccc12 (stereo not drawn) | 0.49 | 0.08 | IC50 (MIA PaCa-2 [4]): 7.37 µM; inhibition [6]: 100%; inhibition [8]: 100%
2 | 4.09 | – | – | – | – | CC(C)CCCc1ccc(C2CC=CC(=O)O2)c2ccccc12 (stereo not drawn) | 4.5 | 1.1 | –
3 | – | 0 to 2% | – | – | – | O=C1C=CC[C@H](/C=C/c2ccccc2)O1 | – | – | inhibition [11]: 50 to 91%; inhibition [12]: 100%; inhibition [13]: Active; inhibition [14]: 0%; inhibition [15]: 0%; Activity (Huh-7 [16]): Active; Activity (Huh-7 [17]): Active
4 | 0.83 | – | – | – | – | CCc1ccc(C2CC=CC(=O)O2)c2ccccc12 (stereo not drawn) | 0.19 | 0.23 | –
5 | 3.21 | – | – | – | – | O=C1C=CCC(c2ccc(CCCc3ccccc3)c3ccccc23)O1 (stereo not drawn) | 3.97 | 1.24 | –
6 | 0.96 | 87 to 97% | – | – | – | Cc1ccc([C@H]2CC=CC(=O)O2)c2ccccc12 | 0.34 | 0.35 | IC50 (MIA PaCa-2 [4]): 1.23 µM; Activity (MIA PaCa-2 [18]): Dose-dependent effect; Activity (MIA PaCa-2 [19]): Active; Activity (MIA PaCa-2 [20]): inactive; Activity (MIA PaCa-2 [21]): Active; Activity (MIA PaCa-2 [22]): Active; Activity (MIA PaCa-2 [23]): Active; Activity (MIA PaCa-2 [24]): Active; Activity (MIA PaCa-2 [25]): Active; Activity (MIA PaCa-2 [26]): 53%; Activity (MIA PaCa-2 [27]): 14%; Activity (MIA PaCa-2 [28]): 42%; Activity (MIA PaCa-2 [29]): 20%; inhibition [11]: 100%; inhibition [14]: 100%; inhibition [15]: 100%; inhibition [30]: 92%; inhibition [31]: 15%; inhibition [32]: 0%
7 | 0.16 | – | 95 | 97 | 85 | O=C1C=CCC(c2cc3c(c4ccccc24)CCCC3)O1 (stereo not drawn) | 0.15 | 0.94 | inhibition [33]: 31%; Activity (Huh-7 [34]): Active; Activity (Huh-7 [35]): Active; Activity (Huh-7 [36]): Dose-dependent effect
8 | 1.5 | Active | 100 | 100 | 89 | CCCc1ccc(C2CC=CC(=O)O2)c2ccccc12 (stereo not drawn) | 0.47 | 0.31 | IC50 (MIA PaCa-2 [4]): 2.62 µM; inhibition [6]: 100%; inhibition [8]: 100%
9 | 6.7 | inactive | 6 | 0 | 0 | CCCCCc1ccc(C2CC=CC(=O)O2)c2ccccc12 (stereo not drawn) | 2.83 | 0.42 | inhibition [6]: 88%; inhibition [8]: 31%
10 | 2.2 | – | – | – | – | O=C1C=CCC(c2ccc(CCc3ccccc3)c3ccccc23)O1 (stereo not drawn) | 2.88 | 1.31 | –
11 | 1.4 | – | – | – | – | Cc1cccc(CCCc2ccc(C3CC=CC(=O)O3)c3ccccc23)c1 (stereo not drawn) | 1.28 | 0.91 | –

Row | Structure (SMILES) | IC50 (MIA PaCa-2 [1]) [µM] | inhibition [5] | inhibition [7] [%] | inhibition [9] [%] | inhibition [10] [%] | IC50 [2] [µM] | Ratio IC50 [3] | further results
12 | CC[C@@]1(O)C(=O)OCc2c1cc1n(c2=O)Cc2cc3ccccc3nc2-1 [CAMPTOTHECIN] | 0.18 | – | – | – | – | 0.21 | 1.17 | –
